Results from patent US20080292580A1, “Treatment of Inflammatory Diseases” (UNIVERSITY COLLEGE LONDON HOSPITALS NHS FOUNDATION, priority 2004, published 2008).

Tested on: normal mice
Assay: Toxic effects of PEG-saline infusion in normal mice
Settings: mouse, in vivo
Protocol: In this example, the toxic effects of high molecular weight polyethylene glycol at high concentrations were compared to the effects of low molecular weight polyethylene glycol at even higher concentrations.
Normal mice, which were not subjected to zymozan or lipopolysaccharide injections, were infused (25 ml/kg) with either PEG-200-saline solution at a PEG-200 concentration of 100 mg/ml or PEG-4000-saline solution at a PEG-4000 concentration of 30 mg/ml.

polyethylene glycol [PEG 200-saline]
survival of normal mice: survived
